Calls of active or inactive are those of the source. No cut-off for these calls is given here.
How the values were obtained:
[1] = tested on: U-937; test: Anti-necroptotic activity against TNFalph/Z-VAD-FMK-induced human U-937 cells assessed as cell viability measured after 19 to 21 hrs by CellTiter-Glo luminescent cell viability assay; format: functional, cell-based
[2] = tested on: HT-29; test: Anti-necroptotic activity in human HT-29 cells assessed as inhibition of TNFalpha/Z-VAD-fmk (TCZ)-induced necroptosis pretreated for 8 to 12 hrs; format: functional, cell-based
[3] = biological target: T1, Receptor-interacting serine/threonine-protein kinase 1 (Homo sapiens, UniProt Q13546); test: Inhibition of human wild type RIPK1 (M1 to K305) expressed in bacterial system by kinomescan assay
T1 sequence (Q13546 whole entry): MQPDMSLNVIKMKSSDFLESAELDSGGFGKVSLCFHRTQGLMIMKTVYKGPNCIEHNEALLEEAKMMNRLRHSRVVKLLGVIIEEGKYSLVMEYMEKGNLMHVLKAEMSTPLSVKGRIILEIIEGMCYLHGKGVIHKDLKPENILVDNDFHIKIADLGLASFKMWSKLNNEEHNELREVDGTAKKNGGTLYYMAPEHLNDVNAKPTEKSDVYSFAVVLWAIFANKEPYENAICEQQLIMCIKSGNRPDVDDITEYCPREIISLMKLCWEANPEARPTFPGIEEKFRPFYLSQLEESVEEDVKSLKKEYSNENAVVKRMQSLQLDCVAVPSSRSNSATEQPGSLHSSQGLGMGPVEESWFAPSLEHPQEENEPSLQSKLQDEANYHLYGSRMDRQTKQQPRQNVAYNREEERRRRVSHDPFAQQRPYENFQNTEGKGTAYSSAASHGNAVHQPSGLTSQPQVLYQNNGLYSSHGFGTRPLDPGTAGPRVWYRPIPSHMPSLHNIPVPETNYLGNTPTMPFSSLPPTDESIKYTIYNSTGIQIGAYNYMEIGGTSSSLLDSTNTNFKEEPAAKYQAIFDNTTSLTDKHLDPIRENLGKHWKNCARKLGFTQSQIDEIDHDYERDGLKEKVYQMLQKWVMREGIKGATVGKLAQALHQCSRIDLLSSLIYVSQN

[4] = biological target: Receptor-interacting serine/threonine-protein kinase 3 (Homo sapiens, UniProt Q9Y572); test: Inhibition of human wild type RIPK3 (M1 to Q307) expressed in bacterial system by kinomescan assay
[5] = biological target: T2, Receptor-interacting serine/threonine-protein kinase 1 (Homo sapiens) (UniProt Q13546); test: Inhibition of RIPK1 in human HT-29 cells assessed as inhibition of TSZ-induced RIPK1 phosphorylation at 1 uM measured upto 4 hrs by Western blot analysis; format: cell-based; settings: time hrs <=4
T2 sequence (whole entry): T1 sequence (Q13546 whole entry)

[6] = biological target: T2, Receptor-interacting serine/threonine-protein kinase 1 (Homo sapiens); test: Inhibition of RIPK1 in human HT-29 cells assessed as inhibition of TSZ-induced RIPK3 phosphorylation at 1 uM measured upto 4 hrs by Western blot analysis; format: cell-based; settings: time hrs <=4
[7] = biological target: T2, Receptor-interacting serine/threonine-protein kinase 1 (Homo sapiens); test: Inhibition of RIPK1 in human HT-29 cells assessed as inhibition of TSZ-induced MLKL phosphorylation at 1 uM measured upto 4 hrs by Western blot analysis; format: cell-based; settings: time hrs <=4
[8] = biological target: T3, Receptor-interacting serine/threonine-protein kinase 1 (Mus musculus) (UniProt Q60855); test: Inhibition of RIPK1 in mouse L929 cells assessed as TZ-induced RIPK3 phosphorylation at 1 uM measured upto 4 hrs by Western blot analysis; format: cell-based; settings: time hrs <=4
T3 sequence (whole entry): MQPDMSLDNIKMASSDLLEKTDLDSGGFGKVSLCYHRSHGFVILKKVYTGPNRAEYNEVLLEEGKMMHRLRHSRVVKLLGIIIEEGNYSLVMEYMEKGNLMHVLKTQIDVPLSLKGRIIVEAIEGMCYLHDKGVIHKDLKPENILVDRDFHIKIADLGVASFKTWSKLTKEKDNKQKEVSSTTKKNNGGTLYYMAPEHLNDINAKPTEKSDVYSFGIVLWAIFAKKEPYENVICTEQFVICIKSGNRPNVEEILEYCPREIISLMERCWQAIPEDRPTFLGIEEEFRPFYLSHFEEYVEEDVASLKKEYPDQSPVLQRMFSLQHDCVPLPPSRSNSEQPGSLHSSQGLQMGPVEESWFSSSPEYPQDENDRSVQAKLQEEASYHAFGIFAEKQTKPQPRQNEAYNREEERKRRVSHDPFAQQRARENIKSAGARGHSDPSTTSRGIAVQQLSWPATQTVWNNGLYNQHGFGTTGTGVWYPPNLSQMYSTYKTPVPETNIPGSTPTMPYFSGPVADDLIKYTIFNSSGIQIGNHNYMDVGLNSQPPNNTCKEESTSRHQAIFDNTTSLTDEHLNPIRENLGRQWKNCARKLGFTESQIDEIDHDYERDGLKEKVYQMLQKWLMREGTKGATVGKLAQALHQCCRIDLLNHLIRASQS

[9] = biological target: T3, Receptor-interacting serine/threonine-protein kinase 1 (Mus musculus); test: Inhibition of RIPK1 in mouse L929 cells assessed as TZ-induced MLKL phosphorylation at 1 uM measured upto 4 hrs by Western blot analysis; format: cell-based; settings: time hrs <=4
[10] = tested on: HT-29; test: Anti-necroptotic activity in human HT-29 cells assessed as inhibition of TSZ induced necroptosis at 0.25 uM measured after 12 hrs; format: functional; design: scale not given: the % may be the effect or the level left
[11] = tested on: L929; test: Anti-necroptotic activity in mouse L929 cells assessed as inhibition of TZ-induced necroptosis measured after 9 hrs; format: functional, cell-based
[12] = tested on: HT-29; test: Anti-necroptotic activity in human HT-29 cells assessed as inhibition of TNFalpha/TS induced necroptosis uM measured after 36 hrs; format: functional, cell-based
[13] = tested on: HT-29; test: Anti-necroptotic activity in human HT-29 cells assessed as inhibition of TSZ induced necroptosis at 2.5 uM measured after 12 hrs; format: functional, cell-based
[14] = tested on: L929; test: Anti-necroptotic activity in mouse L929 cells assessed as inhibition of mTNFalpha-induced necroptosis measured after 9 hrs; format: functional
[15] = tested on: HT-29; test: Anti-necroptotic activity in human HT-29 cells assessed as inhibition of TSZ induced necroptosis measured after 12 hrs; format: functional, cell-based; settings: dose 0.025-25 µM
[16] = tested on: L929; test: Anti-necroptotic activity against TNFalph/Z-VAD-FMK-induced mouse L929 cells assessed as cell viability measured after 19 to 21 hrs by CellTiter-Glo luminescent cell viability assay; format: functional, cell-based

Receptor-interacting serine/threonine-protein kinase 3, sequence (Q9Y572 whole entry): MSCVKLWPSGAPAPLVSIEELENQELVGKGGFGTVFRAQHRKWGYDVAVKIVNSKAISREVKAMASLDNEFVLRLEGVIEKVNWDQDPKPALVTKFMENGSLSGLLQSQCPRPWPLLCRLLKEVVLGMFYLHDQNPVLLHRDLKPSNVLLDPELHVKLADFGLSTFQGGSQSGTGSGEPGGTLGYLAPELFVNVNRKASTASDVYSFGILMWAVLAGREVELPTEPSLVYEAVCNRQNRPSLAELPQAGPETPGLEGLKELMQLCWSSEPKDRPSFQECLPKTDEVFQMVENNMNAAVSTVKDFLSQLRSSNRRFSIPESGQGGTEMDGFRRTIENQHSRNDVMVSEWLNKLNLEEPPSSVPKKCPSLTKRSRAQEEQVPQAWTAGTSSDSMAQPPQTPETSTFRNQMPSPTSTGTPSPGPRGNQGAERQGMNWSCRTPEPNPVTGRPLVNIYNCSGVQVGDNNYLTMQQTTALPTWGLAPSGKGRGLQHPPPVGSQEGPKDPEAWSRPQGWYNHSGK

`CN1C(=O)[C@H](NC(=O)c2cc(Cc3ccccc3)on2)COc2ccccc21` showed an IC50 [1] of over 10000 nM.

Compound `CC1(C)C[C@@H]1C(=O)Nc1nc2ccc(Oc3ccc(F)c(NC(=O)Cc4cccc(C(F)(F)F)c4)c3)cc2s1` has an EC50 [2] of 150 nM, a Kd [3] of 430 nM and a Kd [4] of 145 nM. For the same compound, the inhibition [5] was “Active”, the inhibition [6] was “Active” and the inhibition [7] was “Active”. The inhibition [8] was “Active”, the inhibition [9] was “Active” and the Activity [10] was 90%. For the same compound, the Activity [11] was “Dose-Dependent Effect”, the Activity [12] was “Dose-Dependent Effect” and the inhibition [13] was “Active”. For the same compound, the “inhibition (INH)” value [14] was 100%.

Compound `CC1(C)C[C@H]1C(=O)Nc1nc2ccc(Oc3ccc(F)c(NC(=O)Cc4cccc(C(F)(F)F)c4)c3)cc2s1` has an EC50 [2] of 290 nM, a Kd [3] of 1700 nM and a Kd [4] of 650 nM. For the same compound, the inhibition [5] was “Active”, the inhibition [6] was “Active” and the inhibition [7] was “Active”. For the same compound, the inhibition [8] was “Active”, the inhibition [9] was “Active” and the Activity [11] was “Dose-Dependent Effect”. For the same compound, the Activity [12] was “Dose-Dependent Effect”, the inhibition [13] was “Active” and the “inhibition (INH)” value [14] was 100%.

`CC(C)(C)C(=O)N1N=CC[C@@H]1c1ccccc1` was tested, and the IC50 [1] was over 10000 nM.

Compound `CN1C(=O)[C@@H](NC(=O)c2cc(Cc3ccccc3)on2)COc2ccccc21` has an IC50 [1] of 10 nM.

`CC1(C)CC1C(=O)Nc1nc2ccc(Oc3ccc(F)c(NC(=O)Cc4cccc(C(F)(F)F)c4)c3)cc2s1` (racemic) showed an EC50 [2] of 310 nM, a Kd [3] of 480 nM and a Kd [4] of 270 nM. For the same compound, the inhibition [5] was “Active”, the inhibition [6] was “Active” and the inhibition [7] was “Active”. For the same compound, the inhibition [8] was 100%, the inhibition [9] was 100% and the Activity [15] was “Dose-Dependent Effect”. For the same compound, the Activity [11] was “Dose-Dependent Effect”, the Activity [12] was “Dose-Dependent Effect” and the “inhibition (INH)” value [14] was 100%.

Compound `CC(C)(C)C(=O)N1N=CC[C@H]1c1ccccc1` has an IC50 [16] of 3.1 nM.

From ChEMBL document CHEMBL4819126, “Enantiomeric profiling of a chiral benzothiazole necroptosis inhibitor” (Bioorg Med Chem Lett, 2021)
